From patent publication US20240368174A1, “Antiviral Heterocyclic Compounds” (Enanta Pharmaceuticals, Inc., priority 2023, published 2024)
pEC50: −log10 of the molar value.

Tested on: HMPV clinical isolate A2 strain TN 94-49
Experiment: HMPV antiviral assay, Method 2 (LLC-MK2 cells with CP-100-356, ATP-Lite)
Assay type: cell-based
Conditions: human metapneumovirus; hMPV A2 TN/94-49, LLC-MK2 cells with CP-100-356, Method 2
Method in brief: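 EC50 comes from a four-parameter fit of percent cell viability (ATP-Lite, normalized to virus-only and cell-only wells) after 7 days at 37 °C. Infection used HMPV A2 TN 94-49 at MOI 0.16 in LLC-MK2 cells, with 2 μM P-gp inhibitor CP-100-356 and 2 μg/mL TPCK-trypsin final; dose range 200 nM top, 2.5-fold, 10 points, duplicate.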

Row | SMILES | pEC50
1 | C[C@]1(C(N)=O)COc2c1cc([C@@](O)(CNC(=O)c1cc(Cl)c3nn(C(F)F)cc3c1)c1ccccc1)nc2-c1cc(Cl)c(F)cc1F [Example 102] | < 6.70
2 | COc1cc(C(=O)NC[C@](O)(c2cc3c(c(-c4ccc5c(c4Cl)OC(F)(F)O5)n2)OC[C@]3(C)C(N)=O)C2CC2)cc2cc(Cl)cnc12 [Example 105] | > 6.70
3 | C[C@]1(C(N)=O)COc2c1cc([C@@](O)(CNC(=O)c1cc(OC3CC3)c3ncc(Cl)cc3c1)C1CC1)nc2-c1ccc2c(c1Cl)OC(F)(F)O2 [Example 106] | > 6.70

Tested on: genotype A, “Long” strain RSV
Experiment: RSV-A assay (CPE, ATPlite readout in Hep-2 cells)
Assay type: cell-based, Human respiratory syncytial virus
Conditions: activity class
From the text: Hep-2 cells, (originally derived from tumors grown in irradiated-cortisonised weanling rats that had been injected with epidermoid carcinoma tissue from the larynx of a person, but later found to be indistinguishable from HeLa cells by PCR DNA analysis), were used for the culturing of genotype A, “Long” strain RSV. Flasks were inoculated with RSV and viral stocks were collected once cytopathic effect (CPE) was greater than 90%. Viral stocks in 25% sucrose media were snap frozen using liquid nitrogen to increase viral stability. Viral stock titers were quantified by tissue culture infectious dose 50% (TCID50) using 8,000 cells per well and 3-fold viral dilutions across a 96-well plate, cultured for 4 days. Viral stock titers were also quantified by a plaque forming unit assay, as described elsewhere.
Following extensive parameter testing, the final assay is run as follows: Hep-2 cells are seeded into the inner 60 wells of a 96-well plate at 8,000 cells per well in a volume of 50 μL using Growth Media (DMEM without phenol red, 1% L-Glut, 1% Penn/Strep, 1% nonessential amino acids, 10% heat-inactivated FBS). 2-fold serial dilutions of control and test compounds are added to the wells in duplicate in a total volume of 25 μL. Viral stock is then added to the wells at a multiplicity of infection (MOI) of 0.1 in a volume of 25 μL, bringing the total volume of each well to 100 μL. The MOI is calculated using the PFU/mL, or TCID50 if unavailable. Each 96-well plate has a control column of 6 wells with cells and virus but no compound (negative control, max CPE), a column with cells but no compound or virus (positive control, minimum CPE), and a column with no cells or virus or compound (background plate/reagent control). The control wells with cells but no virus are given an additional 25 μL of growth media containing an equal quantity of sucrose as those wells receiving the viral stock in order to keep consistent in media and volume conditions. The outer wells of the plate are filled with 125 μL of moat media (DMEM, 1% Penn/Strep) to act as a thermal and evaporative moat around the test wells. Following a 5-day incubation period, the plates are read using ATPlite (50 uL added per well), which quantifies the amount of ATP (a measure of cell health) present in each well. Assay plates are read using the Envision luminometer. […] EC50 ranges are as follows: A<0.2 μM; B>0.2 μM.

Row | SMILES | pEC50
4 | COc1cc(C(=O)NC[C@](O)(c2cc3c(c(-c4ccnc(Cl)c4Cl)n2)OC[C@]3(C)C(N)=O)C2CC2)cc2cn(C(F)F)nc12 [Example 732] | > 6.70

Same assay, conditions: human respiratory syncytial virus, activity class

Row | SMILES | pEC50
5 | COc1cc(C(=O)NC[C@](O)(c2cc3c(c(-n4ccc5c(F)cccc54)n2)OC[C@]3(C)C(N)=O)C(F)(F)F)cc2cc(C3CC3)nn12 [Example 686] | > 6.70
6 | COc1cc(C(=O)NC[C@](O)(c2cc3c(c(-n4ccc5ccccc54)n2)OC[C@]3(C)C(N)=O)C2(F)CC2)cc2cn(C3CC3)nc12 [Example 716] | > 6.70
7 | COc1cc(C(=O)NC[C@@](O)(c2cc3c(c(-c4ccnc(Cl)c4Cl)n2)OC[C@]3(C)C(N)=O)C2CC2)cc2cn(C(F)F)nc12 [Example 733] | > 6.70
8 | COc1cc(C(=O)NC[C@](O)(c2cc3c(c(-c4cncc(Cl)c4Cl)n2)OC[C@]3(C)C(N)=O)C2CC2)cc2cn(C3CC3)nc12 [Example 740] | > 6.70
9 | COc1cc(C(=O)NC[C@](O)(c2cc3c(c(-n4ccc5ccccc54)n2)OC[C@]3(C)C(N)=O)C2CC2)cc2cn(C3(F)CC3)nc12 [Example 741] | > 6.70
10 | COc1cc(C(=O)NC[C@](O)(c2cc3c(c(-n4ccc5ccccc54)n2)OC[C@]3(C)C(N)=O)C2CC2)cc2oc(C3CC3)nc12 [Example 748] | > 6.70
11 | COc1cc(C(=O)NC[C@](O)(c2cc3c(c(-c4ccnc(C)c4Cl)n2)OC[C@]3(C)C(N)=O)C2CC2)cc2cn(C(F)F)nc12 [Example 753] | > 6.70
12 | COc1cc(C(=O)NC[C@](O)(c2cc3c(c(-c4ccnc(C)c4Cl)n2)OC[C@]3(C)C(N)=O)C2CC2)cc2cn(C3(F)CC3)nc12 [Example 754] | > 6.70
13 | COc1cc(C(=O)NC[C@](O)(c2cc3c(c(-c4ccnc(C)c4Cl)n2)OC[C@]3(C)C(N)=O)C2CC2)cc2oc(C3CC3)nc12 [Example 755] | > 6.70
14 | COc1cc(C(=O)NC[C@](O)(c2cc3c(c(-c4cncc(Cl)c4Cl)n2)OC[C@]3(C)C(N)=O)C2CC2)cc2cn(C(F)F)nc12 [Example 772] | > 6.70
15 | COc1cc(C(=O)NC[C@](O)(c2cc3c(c(-c4cncc(Cl)c4Cl)n2)OC[C@]3(C)C(N)=O)C2CC2)cc2cn(C3(F)CC3)nc12 [Example 773] | > 6.70
16 | COc1cc(C(=O)NC[C@](O)(c2cc3c(c(-c4cncc(Cl)c4Cl)n2)OC[C@]3(C)C(N)=O)C2CC2)cc2oc(C3CC3)nc12 [Example 774] | > 6.70
17 | COc1cc(C(=O)NC[C@](O)(c2cc3c(c(-c4ccnc(C(F)(F)F)c4Cl)n2)OC[C@]3(C)C(N)=O)C2(F)CC2)cc2cn(C3CC3)nc12 [Example 784] | > 6.70
18 | COc1cc(C(=O)NC[C@](O)(c2cc3c(c(-n4ncc5c(F)cccc54)n2)OC[C@]3(C)C(N)=O)C(F)(F)F)cc2cn(C3CC3)nc12 [Example 830] | > 6.70
19 | COc1cc(C(=O)NC[C@](O)(c2cc3c(c(-n4ccc5ccc(F)cc54)n2)OC[C@]3(C)C(N)=O)C(F)(F)F)cc2cn(C3CC3)nc12 [Example 853] | > 6.70
20 | COc1cc(C(=O)NC[C@](O)(c2cc3c(c(-n4ccc5cccc(F)c54)n2)OC[C@]3(C)C(N)=O)C(F)(F)F)cc2cn(C3CC3)nc12 [Example 854] | > 6.70
21 | COc1cc(C(=O)NC[C@](O)(c2cc3c(c(-n4ccc5c6c(ccc54)OC(F)(F)O6)n2)OC[C@]3(C)C(N)=O)C2CC2)cc2cn(C3CC3)nc12 [Example 855] | > 6.70
22 | COc1cc(C(=O)NC[C@@](O)(c2ccnc(N(C)C)c2)c2cc3c(c(-c4cc(Cl)c(F)cc4F)n2)OC[C@]3(C)C(N)=O)cc2cn(C3CC3)nc12 [Example 884] | > 6.70

Now from value to compound:

Row | pEC50 | SMILES
23 | > 6.70 | C[C@]1(C(N)=O)COc2c1cc([C@@](O)(CNC(=O)c1cc(Cl)c3nn(C(F)F)cc3c1)c1ccccc1)nc2-c1cc(Cl)c(F)cc1F [Example 102]
24 | > 6.70 | COc1cc(C(=O)NC[C@](O)(c2cc3c(c(-c4ccc5c(c4Cl)OC(F)(F)O5)n2)OC[C@]3(C)C(N)=O)C2CC2)cc2cc(Cl)cnc12 [Example 105]
25 | > 6.70 | C[C@]1(C(N)=O)COc2c1cc([C@@](O)(CNC(=O)c1cc(OC3CC3)c3ncc(Cl)cc3c1)C1CC1)nc2-c1ccc2c(c1Cl)OC(F)(F)O2 [Example 106]
26 | > 6.70 | COc1cc(C(=O)NC[C@](O)(c2cc3c(c(-n4ccc5ccccc54)n2)OC[C@]3(C)C(N)=O)C2CC2)cc2cn(C(F)F)nc12 [Example 445]
27 | > 6.70 | COc1cc(C(=O)NC[C@](O)(c2cc3c(c(-n4nnc5ccccc54)n2)OC[C@]3(C)C(N)=O)C2CC2)cc2cn(C3CC3)nc12 [Example 450]
28 | > 6.70 | COc1cc(C(=O)NC[C@](O)(c2cc3c(c(-n4nc(Cl)c5ccccc54)n2)OC[C@]3(C)C(N)=O)C2CC2)cc2cn(C3CC3)nc12 [Example 451]
29 | > 6.70 | COc1cc(C(=O)NC[C@](O)(c2cc3c(c(-n4ccc5c(F)cccc54)n2)OC[C@]3(C)C(N)=O)C2CC2)cc2cn(C3CC3)nc12 [Example 452]
30 | > 6.70 | COc1cc(C(=O)NC[C@](O)(c2cc3c(c(-n4ccc5cc(F)ccc54)n2)OC[C@]3(C)C(N)=O)C2CC2)cc2cn(C3CC3)nc12 [Example 453]
31 | > 6.70 | COc1cc(C(=O)NC[C@](O)(c2cc3c(c(-n4ccc5ccc(F)cc54)n2)OC[C@]3(C)C(N)=O)C2CC2)cc2cn(C3CC3)nc12 [Example 454]
32 | > 6.70 | COc1cc(C(=O)NC[C@](O)(c2cc3c(c(-n4ccc5cccc(F)c54)n2)OC[C@]3(C)C(N)=O)C2CC2)cc2cn(C3CC3)nc12 [Example 455]
33 | > 6.70 | COc1cc(C(=O)NC[C@](O)(c2cc3c(c(-c4cc(C(F)(F)F)ncc4F)n2)OC[C@]3(C)C(N)=O)C2(F)CC2)cc2cn(C3CC3)nc12 [Example 458]
34 | > 6.70 | COc1cc(C(=O)NC[C@](O)(c2cc3c(c(-c4cc(C(F)(F)F)ncc4F)n2)OC[C@]3(C)C(N)=O)C2(F)CC2)cc2cn(C3(F)CC3)nc12 [Example 459]
35 | > 6.70 | COc1cc(C(=O)NC[C@](O)(c2cc3c(c(-c4cc(C(F)(F)F)ncc4F)n2)OC[C@]3(C)C(N)=O)C2(F)CC2)cc2cn(C(F)F)nc12 [Example 460]
36 | > 6.70 | COc1cc(C(=O)NC[C@](O)(c2cc3c(c(-c4cc(C(F)(F)F)ncc4F)n2)OC[C@]3(C)C(N)=O)C2(F)CC2)cn2cc(C3CC3)nc12 [Example 461]
37 | > 6.70 | COc1cc(C(=O)NC[C@](O)(c2cc3c(c(-c4cc(C(F)(F)F)ncc4F)n2)OC[C@]3(C)C(N)=O)C2(F)CC2)cc2cc(C3CC3)nn12 [Example 462]
38 | > 6.70 | COc1cc(C(=O)NC[C@@](O)(c2cc(F)nc(F)c2)c2cc3c(c(-c4cccc(Cl)c4Cl)n2)OC[C@]3(C)C(N)=O)cc2cn(C3CC3)nc12 [Example 575]
39 | > 6.70 | COc1cc(C(=O)NC[C@](O)(c2cc3c(c(-c4cccc(F)c4Cl)n2)OC[C@]3(C)C(N)=O)C2CC2)cc2cn(C(F)F)nc12 [Example 614]
40 | > 6.70 | COc1cc(C(=O)NC[C@](O)(c2cc3c(c(-c4cccc(F)c4Cl)n2)OC[C@]3(C)C(N)=O)C2CC2)cc2oc(C3CC3)nc12 [Example 616]
41 | > 6.70 | COc1cc(C(=O)NC[C@](O)(c2cc3c(c(-c4ccnc(C)c4Cl)n2)OC[C@]3(C)C(N)=O)C2CC2)cn2cc(C3CC3)nc12 [Example 672]
42 | > 6.70 | COc1cc(C(=O)NC[C@](O)(c2cc3c(c(-c4ccnc(C)c4Cl)n2)OC[C@]3(C)C(N)=O)C2CC2)cc2cc(C3CC3)nn12 [Example 673]
43 | > 6.70 | Cc1nccc(-c2nc([C@@](O)(CNC(=O)c3cc(Cl)c4nn(C5CC5)cc4c3)C3CC3)cc3c2OC[C@]3(C)C(N)=O)c1Cl [Example 674]
44 | > 6.70 | COc1cc(C(=O)NC[C@](O)(c2cc3c(c(-c4ccnc(C)c4Cl)n2)OC[C@]3(C)C(N)=O)C2CC2)cc2cc(Cl)c(C)nc12 [Example 675]
45 | > 6.70 | C[C@]1(C(N)=O)COc2c1cc([C@@](O)(CNC(=O)c1cc(OCCO)c3nn(C4CC4)cc3c1)C1CC1)nc2-c1ccc(F)c(F)c1Cl [Example 676]
46 | > 6.70 | C[C@]1(C(N)=O)COc2c1cc([C@@](O)(CNC(=O)c1cc(OCCO)c3nn(C4CC4)cc3c1)C1CC1)nc2-c1ccc(F)c(Cl)c1Cl [Example 677]
47 | > 6.70 | COc1cc(C(=O)NC[C@](O)(c2cc3c(c(-n4ccc5c(F)cccc54)n2)OC[C@]3(C)C(N)=O)C(F)(F)F)cc2cn(C(F)F)nc12 [Example 684]
